These results are taken from patent US20240269139A1, “COMPOUNDS FOR TARGETED PROTEIN DEGRADATION OF KINASES” (DANA-FARBER CANCER INSTITUTE, INC., priority 2020, published 2024).

Holding throughout (type): cell-based
Experiment [1] concerns the target protein kinases (human kinome) (Homo sapiens, UniProt Q9H999). The following applies: PANK3 (Q9H999); experiment wp152.
Experiment [2] addresses protein kinases (human kinome) (Homo sapiens, UniProt Q16832).
Experiment [3] concerns the target protein kinases (human kinome) (Homo sapiens, UniProt O00764). To be noted: protein PDXK (O00764-1); experiment wp117; down.
Experiment [4] has as its target protein kinases (human kinome) (Homo sapiens, UniProt Q8N4C8). To be noted: experiment wp107.
Experiment [5] concerns the target T1, protein kinases (human kinome) (Homo sapiens, UniProt Q13043).
T1 sequence (Q13043 1-487): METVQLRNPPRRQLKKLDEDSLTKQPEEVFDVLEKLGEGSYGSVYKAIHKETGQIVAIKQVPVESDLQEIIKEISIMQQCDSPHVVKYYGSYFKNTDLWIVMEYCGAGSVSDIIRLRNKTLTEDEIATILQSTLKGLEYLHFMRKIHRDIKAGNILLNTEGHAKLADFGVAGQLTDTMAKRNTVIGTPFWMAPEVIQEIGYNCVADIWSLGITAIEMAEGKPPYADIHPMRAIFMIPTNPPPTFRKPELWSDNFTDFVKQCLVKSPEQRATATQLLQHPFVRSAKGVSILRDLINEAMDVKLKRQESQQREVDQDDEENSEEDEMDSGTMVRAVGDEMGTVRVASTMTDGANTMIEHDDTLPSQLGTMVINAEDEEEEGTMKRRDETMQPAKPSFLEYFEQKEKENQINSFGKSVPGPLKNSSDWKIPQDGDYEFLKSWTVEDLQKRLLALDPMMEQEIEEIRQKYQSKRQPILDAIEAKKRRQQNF
The following applies: for logFC: STK4 (Q13043-1).

For experiment [6], the target named is protein kinases (human kinome) (Homo sapiens, UniProt P49841).
For experiment [7], the target named is T2, protein kinases (human kinome) (Homo sapiens, UniProt Q13163).
T2 sequence (Q13163 1-448): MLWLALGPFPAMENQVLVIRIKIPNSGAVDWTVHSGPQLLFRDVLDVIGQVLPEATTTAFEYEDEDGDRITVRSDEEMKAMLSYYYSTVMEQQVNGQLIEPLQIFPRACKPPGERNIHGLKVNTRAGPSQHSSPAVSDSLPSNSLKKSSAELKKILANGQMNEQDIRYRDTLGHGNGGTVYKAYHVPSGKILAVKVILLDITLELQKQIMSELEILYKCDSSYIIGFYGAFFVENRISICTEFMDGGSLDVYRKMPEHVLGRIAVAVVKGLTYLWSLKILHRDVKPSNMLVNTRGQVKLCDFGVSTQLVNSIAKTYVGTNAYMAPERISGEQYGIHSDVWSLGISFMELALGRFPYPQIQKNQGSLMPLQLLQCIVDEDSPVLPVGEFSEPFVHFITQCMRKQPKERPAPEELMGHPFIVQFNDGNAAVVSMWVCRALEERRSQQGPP
To be noted: experiment wp071.

Experiment [8] has as its target protein kinases (human kinome) (Homo sapiens, UniProt Q8TCT0). To be noted: protein CERK (Q8TCT0); experiment wp131; down.
For experiment [9], the target named is protein kinases (human kinome) (Homo sapiens, UniProt O75460). The following applies: experiment wp076.
In experiment [10] the target is protein kinases (human kinome) (Homo sapiens, UniProt Q9UHD2). To be noted: experiment wp146.
The target in experiment [11] is protein kinases (human kinome) (Homo sapiens, UniProt P51957). The following applies: experiment wp146.
Experiment [12] addresses protein kinases (human kinome) (Homo sapiens, UniProt Q16644). The following applies: experiment wp168.
For experiment [13], the target named is protein kinases (human kinome) (Homo sapiens, UniProt P50750).

Structures are written as SMILES. Like-named read-outs stand apart in the source and are kept apart here.

Chain of protein kinases (human kinome) (Homo sapiens, UniProt P50750) (P50750 whole entry): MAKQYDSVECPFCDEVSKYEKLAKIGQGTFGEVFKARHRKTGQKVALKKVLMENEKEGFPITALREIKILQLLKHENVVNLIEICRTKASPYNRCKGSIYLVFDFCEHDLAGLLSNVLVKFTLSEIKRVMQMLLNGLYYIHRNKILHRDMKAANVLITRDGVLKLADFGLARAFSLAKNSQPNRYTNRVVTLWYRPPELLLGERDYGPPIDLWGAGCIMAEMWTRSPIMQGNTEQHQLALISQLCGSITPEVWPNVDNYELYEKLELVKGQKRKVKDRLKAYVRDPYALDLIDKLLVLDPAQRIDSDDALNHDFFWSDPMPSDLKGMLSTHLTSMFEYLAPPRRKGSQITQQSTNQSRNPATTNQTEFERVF
Chain of protein kinases (human kinome) (Homo sapiens, UniProt O75460) (O75460 19-977): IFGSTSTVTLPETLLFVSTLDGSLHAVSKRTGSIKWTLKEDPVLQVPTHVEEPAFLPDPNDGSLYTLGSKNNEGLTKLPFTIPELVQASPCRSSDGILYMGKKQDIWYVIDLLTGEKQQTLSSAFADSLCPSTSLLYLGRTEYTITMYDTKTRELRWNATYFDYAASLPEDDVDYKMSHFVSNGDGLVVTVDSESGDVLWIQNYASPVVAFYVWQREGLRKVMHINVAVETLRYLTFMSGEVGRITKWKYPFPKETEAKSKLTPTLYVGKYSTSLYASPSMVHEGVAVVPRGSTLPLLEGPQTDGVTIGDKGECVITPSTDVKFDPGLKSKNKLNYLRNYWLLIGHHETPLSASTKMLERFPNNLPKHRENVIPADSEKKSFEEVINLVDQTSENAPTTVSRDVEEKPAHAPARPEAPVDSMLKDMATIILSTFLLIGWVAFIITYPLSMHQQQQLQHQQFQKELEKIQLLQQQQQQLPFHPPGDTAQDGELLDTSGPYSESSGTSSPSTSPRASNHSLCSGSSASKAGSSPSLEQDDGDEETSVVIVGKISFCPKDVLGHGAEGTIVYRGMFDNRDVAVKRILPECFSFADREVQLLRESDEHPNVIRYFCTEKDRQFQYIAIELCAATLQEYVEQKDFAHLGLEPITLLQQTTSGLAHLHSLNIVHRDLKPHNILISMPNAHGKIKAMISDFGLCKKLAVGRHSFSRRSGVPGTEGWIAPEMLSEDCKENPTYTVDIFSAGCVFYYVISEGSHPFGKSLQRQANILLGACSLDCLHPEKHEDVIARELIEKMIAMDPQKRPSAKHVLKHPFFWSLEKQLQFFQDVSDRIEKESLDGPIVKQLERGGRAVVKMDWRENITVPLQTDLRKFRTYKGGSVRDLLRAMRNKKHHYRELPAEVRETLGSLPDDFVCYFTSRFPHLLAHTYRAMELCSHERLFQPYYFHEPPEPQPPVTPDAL
Chain of protein kinases (human kinome) (Homo sapiens, UniProt Q16644) (Q16644 whole entry): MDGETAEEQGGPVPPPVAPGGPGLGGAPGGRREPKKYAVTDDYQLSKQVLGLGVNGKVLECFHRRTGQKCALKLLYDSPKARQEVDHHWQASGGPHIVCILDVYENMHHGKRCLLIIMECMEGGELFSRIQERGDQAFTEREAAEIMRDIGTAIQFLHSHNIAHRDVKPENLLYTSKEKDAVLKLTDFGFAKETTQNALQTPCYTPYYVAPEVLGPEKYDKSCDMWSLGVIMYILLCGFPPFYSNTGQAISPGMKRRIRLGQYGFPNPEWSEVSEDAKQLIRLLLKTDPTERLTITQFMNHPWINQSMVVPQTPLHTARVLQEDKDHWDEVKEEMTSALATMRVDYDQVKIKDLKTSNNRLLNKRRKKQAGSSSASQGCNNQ
Chain of protein kinases (human kinome) (Homo sapiens, UniProt Q16832) (Q16832 22-855): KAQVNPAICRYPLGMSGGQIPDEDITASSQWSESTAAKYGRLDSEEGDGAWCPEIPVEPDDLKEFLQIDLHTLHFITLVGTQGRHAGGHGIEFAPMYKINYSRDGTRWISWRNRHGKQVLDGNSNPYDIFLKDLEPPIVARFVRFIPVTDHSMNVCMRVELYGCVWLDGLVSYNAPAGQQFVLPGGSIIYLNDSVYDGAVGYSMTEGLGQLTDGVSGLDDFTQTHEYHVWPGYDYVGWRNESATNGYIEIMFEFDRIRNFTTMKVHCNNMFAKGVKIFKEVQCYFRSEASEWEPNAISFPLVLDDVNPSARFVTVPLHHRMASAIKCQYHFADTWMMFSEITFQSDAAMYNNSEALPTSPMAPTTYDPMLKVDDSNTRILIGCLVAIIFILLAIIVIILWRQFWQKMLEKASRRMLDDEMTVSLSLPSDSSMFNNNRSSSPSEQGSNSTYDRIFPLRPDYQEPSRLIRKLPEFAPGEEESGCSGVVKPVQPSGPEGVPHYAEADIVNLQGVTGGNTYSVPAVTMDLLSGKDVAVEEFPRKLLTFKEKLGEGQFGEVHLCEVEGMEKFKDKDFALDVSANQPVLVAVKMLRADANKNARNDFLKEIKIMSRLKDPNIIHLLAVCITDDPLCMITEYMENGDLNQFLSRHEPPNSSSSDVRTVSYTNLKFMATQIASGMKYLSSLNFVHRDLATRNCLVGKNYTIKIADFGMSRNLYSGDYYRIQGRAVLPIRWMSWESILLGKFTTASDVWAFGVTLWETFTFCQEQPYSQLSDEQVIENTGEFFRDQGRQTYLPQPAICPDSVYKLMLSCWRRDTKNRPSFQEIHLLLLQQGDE
Chain of protein kinases (human kinome) (Homo sapiens, UniProt P51957) (P51957 whole entry): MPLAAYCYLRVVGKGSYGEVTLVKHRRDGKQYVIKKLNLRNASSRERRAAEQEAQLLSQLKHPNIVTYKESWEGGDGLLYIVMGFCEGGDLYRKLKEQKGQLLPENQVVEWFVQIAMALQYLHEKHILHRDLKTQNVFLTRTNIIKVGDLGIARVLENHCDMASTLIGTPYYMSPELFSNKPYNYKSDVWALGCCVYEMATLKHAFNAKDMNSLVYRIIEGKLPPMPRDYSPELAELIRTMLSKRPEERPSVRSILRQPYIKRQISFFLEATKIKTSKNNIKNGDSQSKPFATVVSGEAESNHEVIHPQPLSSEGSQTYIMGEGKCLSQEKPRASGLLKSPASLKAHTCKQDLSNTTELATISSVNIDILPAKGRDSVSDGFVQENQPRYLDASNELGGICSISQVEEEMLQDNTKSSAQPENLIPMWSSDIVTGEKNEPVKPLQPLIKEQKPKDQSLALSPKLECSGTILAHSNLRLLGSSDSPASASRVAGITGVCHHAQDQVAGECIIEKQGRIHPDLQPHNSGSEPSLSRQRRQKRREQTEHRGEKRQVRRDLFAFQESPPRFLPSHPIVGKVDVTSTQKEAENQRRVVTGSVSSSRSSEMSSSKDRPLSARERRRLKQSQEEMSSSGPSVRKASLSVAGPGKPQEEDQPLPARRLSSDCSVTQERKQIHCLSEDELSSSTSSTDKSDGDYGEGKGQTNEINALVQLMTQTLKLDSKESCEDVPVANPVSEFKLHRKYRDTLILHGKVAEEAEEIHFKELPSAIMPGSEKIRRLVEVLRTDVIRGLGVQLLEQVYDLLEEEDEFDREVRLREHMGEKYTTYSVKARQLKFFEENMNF
Chain of protein kinases (human kinome) (Homo sapiens, UniProt P49841) (P49841 whole entry): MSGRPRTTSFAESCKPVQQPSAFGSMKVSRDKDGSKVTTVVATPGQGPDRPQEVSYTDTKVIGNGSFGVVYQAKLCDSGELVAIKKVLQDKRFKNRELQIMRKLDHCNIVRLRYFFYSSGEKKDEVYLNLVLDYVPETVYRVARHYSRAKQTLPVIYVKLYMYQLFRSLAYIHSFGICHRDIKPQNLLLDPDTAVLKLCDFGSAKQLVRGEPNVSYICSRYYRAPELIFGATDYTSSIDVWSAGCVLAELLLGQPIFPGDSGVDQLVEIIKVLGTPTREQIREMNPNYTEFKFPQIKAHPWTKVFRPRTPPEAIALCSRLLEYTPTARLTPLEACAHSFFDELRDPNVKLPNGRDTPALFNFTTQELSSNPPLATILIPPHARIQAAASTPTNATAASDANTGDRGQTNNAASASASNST
Chain of protein kinases (human kinome) (Homo sapiens, UniProt Q9UHD2) (Q9UHD2 whole entry): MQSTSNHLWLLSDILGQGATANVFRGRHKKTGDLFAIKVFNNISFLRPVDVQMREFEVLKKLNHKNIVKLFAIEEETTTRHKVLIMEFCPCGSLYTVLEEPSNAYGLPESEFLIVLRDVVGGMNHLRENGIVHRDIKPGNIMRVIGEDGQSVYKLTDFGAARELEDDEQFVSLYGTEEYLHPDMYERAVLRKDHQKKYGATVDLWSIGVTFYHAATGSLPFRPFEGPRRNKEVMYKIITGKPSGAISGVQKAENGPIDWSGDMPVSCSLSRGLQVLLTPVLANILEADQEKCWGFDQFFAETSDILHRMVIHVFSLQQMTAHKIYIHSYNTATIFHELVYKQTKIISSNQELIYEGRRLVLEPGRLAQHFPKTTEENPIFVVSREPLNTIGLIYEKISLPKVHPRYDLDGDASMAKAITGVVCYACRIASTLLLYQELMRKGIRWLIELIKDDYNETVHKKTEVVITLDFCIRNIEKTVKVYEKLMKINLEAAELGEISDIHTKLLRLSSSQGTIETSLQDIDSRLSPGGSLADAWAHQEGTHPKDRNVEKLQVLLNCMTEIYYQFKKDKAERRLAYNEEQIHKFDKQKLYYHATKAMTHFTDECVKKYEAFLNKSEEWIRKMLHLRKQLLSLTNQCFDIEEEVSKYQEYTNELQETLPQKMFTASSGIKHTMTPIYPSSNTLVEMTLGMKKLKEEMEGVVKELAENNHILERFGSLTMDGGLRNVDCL
Chain of protein kinases (human kinome) (Homo sapiens, UniProt O00764) (O00764 whole entry): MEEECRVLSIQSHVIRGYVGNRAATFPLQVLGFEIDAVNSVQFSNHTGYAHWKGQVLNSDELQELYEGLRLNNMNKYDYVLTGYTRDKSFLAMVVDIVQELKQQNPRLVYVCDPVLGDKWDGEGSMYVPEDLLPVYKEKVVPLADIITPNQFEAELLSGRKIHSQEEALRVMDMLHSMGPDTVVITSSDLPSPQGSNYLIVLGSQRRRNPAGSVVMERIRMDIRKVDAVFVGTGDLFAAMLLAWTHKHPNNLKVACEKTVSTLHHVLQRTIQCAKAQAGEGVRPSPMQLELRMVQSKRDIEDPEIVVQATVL

On to `Cc1ccc(NC(=O)c2cccc(C(F)(F)F)c2)cc1N1Cc2cnc(Nc3ccc(N4CCN(Cc5cn(CCCCCOc6cccc7c6C(=O)N(C6CCC(=O)NC6=O)C7=O)nn5)CC4)nc3)nc2N(C)C1=O` (stereo not drawn) [DB0646, N-(3-(7-((6-(4-((1-(5-((2-(2,6-Dioxopiperidin-3-yl)-1,3-dioxoisoindolin-4-yl)oxy)pentyl)-1H-1,2,3-triazol-4-yl)methyl)piperazin-1-v)pyridin-3-yl)amino)-1-methyl-2-oxo-1,4-dihydropyrimido[4,5-d]pyrimidin-3(2H)-yl)-4-methylphenyl)-3-(trifluoromethyl)benzamide], for which the logFC in experiment [1] is recorded as −0.3534. Also, in experiment [2] (Experiment wp105, direction of change down), the “logFC DDR2 (Q16832)” value was −0.4741. Also, the “logFC DDR2” value in [2] (protein DDR2 (Q16832), experiment wp105, down) is listed as −0.4741.

Regarding `CS(=O)(=O)Nc1cccc(-c2csc3cnc(Nc4ccc(N5CCN(CCCCCOc6cccc7c6C(=O)N(C6CCC(=O)NC6=O)C7=O)CC5)cc4)nc23)c1` (stereo not drawn) [DB0614, N-(3-(2-((4-(4-(5-((2-(2,6-Dioxopiperidin-3-yl)-1,3-dioxoisoindolin-4-yl)oxy)pentyl)piperazin-1-yl)phenyl)amino)thieno[3,2-d]pyrimidin-7-yl)phenyl)methanesulfonamide], the “logFC PDXK” value in experiment [3] is on record as −0.3964.

On to `Nc1ncc(-c2ccc(S(=O)(=O)N(CCCNC(=O)CCOCCOCCOCCOCCOCCNc3cccc4c3C(=O)N(C3CCC(=O)NC3=O)C4=O)C3CC3)cc2)cc1-c1ccc2c(c1)CCNC2=O` (stereo not drawn) [WH.10417.099], for which the “logFC MINK1 (Q8N4C8-1)” value in experiment [4] (direction of change down) is −0.5661. The “logFC MINK1” value in experiment [4] (protein MINK1 (Q8N408-1), down) was −0.5661. For the same compound, the “logFC of STK4 (Q13043-1)” value in [5] (Experiment wp103) was −0.7387; in experiment [5] (Experiment wp107), −0.7188; in experiment [5] (Experiment wp172), −0.5983; in [5] (experiment wp056) it was −0.7157. The logFC in [5] (experiment wp056) is given as −0.7157; in [5] (experiment wp103) it was −0.7387; in [5] (experiment wp107) it was −0.7188; in experiment [5] (experiment wp172), −0.5983. For the same compound, the “logFC GSK3B” value in [6] (Accession P49841-1, experiment wp172, direction down) is given as −0.8298. In addition, in experiment [6] (Experiment wp172), the “logFC of GSK3B (P49841-1)” value is recorded as −0.8298.

`Nc1ncnc2c1c(-c1ccc(Oc3ccccc3)cc1)nn2[C@H]1CC[C@H](N2CCN(CCOCCNC(=O)CNc3cccc4c3C(=O)N(C3CCC(=O)NC3=O)C4=O)CC2)CC1` (stereo partly drawn) [SB1.G.181] showed a logFC in experiment [7] (MAP2K5 (Q13163-1)) of −1.138. In addition, the “logFC of MAP2K5 (Q13163-1)” value in [7] is on record as −1.138.

For the compound `CC(C)S(=O)(=O)c1ccccc1Nc1nc(Nc2ccc(N3CCN(CCOCCOCCNC(=O)CNc4cccc5c4C(=O)N(C4CCC(=O)NC4=O)C5=O)CC3)cc2)ncc1Cl` (stereo not drawn) [TL12.186], the “logFC CERK” value in experiment [8] is reported as −0.3343.

With `O=C1CCC(N2C(=O)c3cccc(NCCCCCCCCN4CCC(NC(=O)c5[nH]ncc5NC(=O)c5c(Cl)cccc5Cl)CC4)c3C2=O)C(=O)N1` (stereo not drawn) [MFH.5.126.1], the “logFC of ERN1 (O75460)” value in experiment [9] is recorded as −0.4882. Moreover, in [9] (protein ERN1 (O75460), down), the “logFC ERN1” value is −0.4882.

Turning to `Cc1cc(Nc2ncc(Br)c(Nc3cccc(F)c3C(N)=O)n2)ccc1S(=O)(=O)NCCOCCOCCOCCOCCNc1cccc2c1C(=O)N(C1CCC(=O)NC1=O)C2=O` (stereo not drawn) [TMX.02.174], the “logFC TBK1 (Q9UHD2)” value in experiment [10] (direction of change down) is on record as −0.5951. The “logFC TBK1” value in [10] (protein TBK1 (Q9UHD2), down) is reported as −0.5951. Besides, the “logFC NEK4 (P51957)” value in [11] (direction of change down) is −0.9508. Further, in [11] (protein NEK4 (P51957), down), the “logFC NEK4” value is −0.9508.

On to `Cc1ccc(NC(=O)c2cccc(C(F)(F)F)c2)cc1N1Cc2cnc(Nc3ccc(N4CCN(CCCCC(=O)N[C@H](C(=O)N5C[C@H](O)C[C@H]5C(=O)N[C@@H](C)c5ccc(-c6scnc6C)cc5)C(C)(C)C)CC4)nc3)nc2N(C)C1=O` [DB1113], for which the logFC in experiment [12] (MAPKAPK3 (Q16644)) is −3.127. Moreover, the “logFC MAPKAPK3 (Q16644)” value in experiment [12] (direction of change down) is given as −3.127.

`CC(C)S(=O)(=O)c1ccccc1Nc1nc(Nc2ccc(N3CCN(CCOCCNC(=O)CNc4cccc5c4C(=O)N(C4CCC(=O)NC4=O)C5=O)CC3)cc2)ncc1Cl` (stereo not drawn) [SK.3.91]: the “logFC CDK9 (P50750)” value in [13] (Experiment wp160, 2 hr) is listed as −0.404; in experiment [13] (Experiment wp172) it was −1.423; in experiment [13] (experiment wp160, 4 hr) it was −1.068. Moreover, the “logFC of CDK9 (P50750)” value is given as −0.404 in experiment [13] (Experiment wp160, 2 hr); −1.423 in [13] (Experiment wp172); −1.068 in experiment [13] (experiment wp160, 4 hr).
